These results are taken from patent US20260200849A1, “CATIONIC LIPIDS AND PREPARATION METHOD THEREOF” (RiboX Therapeutics HK Limited, priority 2024, published 2026).

Molecules are shown by their SMILES. Where “and” joins values, the source holds several entries; their conditions need not be identical. Identical values can stand only once.

For one data set, the system named is IL-6. The data set can be described thus: In vivo tolerability by IV: serum IL-6 by Luminex. Also on record: species or system C57BL/6J mice. The conditions noted are these: Formulation No. 001, RNA No. 331, male C57BL/6J mice, 1.0 mg*kg/1 intravenous; for IL-6 at 2 h: 2 hours post injection; for IL-6 at 24 h: 24 hours post injection. In outline:
(§1)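 Male C57BL/6J mice aged 6-8 weeks (N=3) received 1.0 mg*kg−1 firefly-luciferase RNA-LNPs intravenously, with PBS as negative control. Serum taken at 2 and 24 h post-injection was assayed for MCP-1 and IL-6 by Luminex.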

The test system of a further data set is C57BL/6J mice. Kind of data set: In vivo expression by IV, 1.0 mg/kg luciferase RNA-LNPs, whole-body and organ IVIS luminescence. The conditions noted are these: Formulation No. 001, RNA No. 331; male C57BL/6J mice, 1.0 mg*kg−1 intravenous, 24-hours post injection. In outline: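 Male C57BL/6J mice, 6-8 weeks old (N=3), received 1.0 mg*kg−1 firefly-luciferase RNA-LNPs IV. At 24 h post-dose, luciferin (15 mg/ml) was given IP, and whole-body, liver, spleen, kidney, small and large intestine luminescence was imaged by IVIS.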

Another data set relates to Balb/c mice. The data set can be described thus: In vivo expression by IV, 0.05 mg/kg luciferase RNA-LNPs, IVIS luminescence. Particulars: Formulation No. 001, RNA No. 331; female Balb/c mice, 0.05 mg*kg−1 intravenous, 24-hours post injection. An outline of the steps:
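Female Balb/c mice (7-8 weeks, N=3) received 0.05 mg*kg−1 firefly-luciferase RNA-LNPs IV. Luciferin (15 mg/ml) was given IP at 24 and 72 h post-dose for IVIS whole-body luminescence. A second run imaged whole body, liver and spleen at 24 h only.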

For data set [1], the system named is Hep G2 cells. Kind of data set: In vitro expression: luciferase activity in Hep G2 cells transfected with RNA-LNPs. The conditions noted are these: Formulation No. 001, RNA No. 331 (firefly-luciferase), 100 ng/mL RNA-LNPs, 72 hours post transfection. The format is cell-based. Here is the method:
2E5 Hep G2 cells were transfected with 100 ng/mL of RNA-LNPs encoding for firefly-luciferase. At 72 hours post transfection, the cells were washed and lysed. The luciferase expression (2-well repeat) was determined in the cell lysates with the luciferase assay reagent kit (Promega), according to the kit protocol, luciferase activity was measured by a luminometer.

A short description of data set [2]: RNA encapsulation efficacy (EE %) by Quant-IT Ribogreen kit. It is filed as physicochemical. Particulars: LNP. Here is the method:
(§2) The LNP size and polydispersity index (PDI), determined by dynamic light scattering (DLS), and zeta potential were measured by a Zetasizer machine (Malvern). RNA concentration and encapsulation efficacy (EE %) were analyzed by the Quant-IT Ribogreen kit by calculating the percentage encapsulation at 100%—(RNA-LNPs/RNA-LNPs with Triton X-100).

Another data set has as its system MCP-1. Kind of data set: In vivo tolerability by IV: serum MCP-1 by Luminex. Details: species or system C57BL/6J mice. The conditions noted are these: Formulation No. 001, RNA No. 331, male C57BL/6J mice, 1.0 mg*kg/1 intravenous; for MCP-1 at 2 h: 2 hours post injection; for MCP-1 at 24 h: 24 hours post injection. An outline of the steps: as §1
The subject of data set [3] is Hep G2 cells. The data set can be described thus: In vitro toxicity: Hep G2 cell viability by CellTiter-Glo. The format is cell-based. Particulars: Formulation No. 001, RNA No. 331, 1 μg/mL RNA-LNPs, 72 hours post transfection, cell only = 100%. The protocol:
2E5 Hep G2 cells were transfected with 1 μg/mL RNA-LNPs. At 72 hours post transfection, cell viability (2-well repeat) was determined with the CellTiter-Glo® reagent kit, according to the kit protocol, measured by a luminometer. Cell only as control (100%).
The cell viability was calculated according to the following formula: […]

The nature of data set [4]: LNP size and polydispersity index (PDI) by dynamic light scattering (Zetasizer). The format is physicochemical. The conditions noted are these: for Size (nm): Formulation No. 001 (Ionizable lipid:DSPC:cholesterol:DMG-PEG2000 = 50:10:38.5:1.5, N/P 6), RNA No. 331. The protocol: as §2
Data set [5] in a line: In vivo lipid metabolism by IV: ionizable lipid concentration in plasma and liver by LC-MS/MS. Also on record: species or system Sprague-Dawley (SD) rats. Particulars: IV 0.15 mg/kg RNA-LNPs (hEPO), male SD rats, individual animals N=3; for concentration at 6 h: male, Sprague-Dawley, rat, liver, iv, 0.15 mg/kg, read-out: Liver (ng/g), ionizable lipid concentration. The protocol: In Vivo Lipid Metabolism by IV 7-8 week old, male Sprague-Dawley (SD) rats (N=3) were injected with 0.15 mg*kg−1 of RNA-LNPs encoding for hEPO by intravenous injection. At 1-/6-/96-/168-hours post injection, about 100 μL blood will be harvested and immediately added to the EDTAK2 containing tube. Place on wet ice and then centrifuged at 3000 g×5 min to obtain plasma. 30 μL plasma will be aliquoted to the 1.5 mL tubes. At terminal 6-/168-hours post injection, the rats will be euthanized with CO2, hemorrhaged immediately with cardiac puncture, respectively. The livers were harvested, weighed and washed with saline, then put into 50 ml centrifuge tube placed in liquid nitrogen, then transferred into wet ice, and finally stored at −80° C. immediately. Both plasma and liver samples were used for ionizable lipid concentration quantification by LC-MS/MS. The lower limit of quantitation (LLOQ) is 1 ng/mL in plasma or 11 ng/g in liver. BQL—Below the lower limit of quantitation (LLOQ).

[6] abbreviates: Formulation No. 001, RNA No. 019 (hEPO).
Setting [7] is: Formulation No. 001, RNA No. 331.

Turning to `CCCCCCCCCC(=O)OCCCCCCCOC(=O)C(COC(=O)NCCN1CCCCCC1)NC(=O)OCCCCCCCCOC(=O)C(CCCCCC)CCCCCCCC` (centres unmarked) [Lipid 934], in the data set with IL-6, the “IL-6 at 2 h” value was 40.7 pg/mL and the “IL-6 at 24 h” value turned out to be 7.83 pg/mL. In the data set on C57BL/6J mice, the “Kidney (p/s)” value is 4.10E+07 p/s, the “Large intestine (p/s)” value is 1.17E+08 p/s, the “Liver (p/s)” value stood at 1.82E+09 p/s and the “Small intestine (p/s)” value is 6.60E+08 p/s. Also, in the data set with C57BL/6J mice, the “Spleen (p/s)” value was found to be 1.17E+09 p/s and the “Whole body (p/s)” value came out at 2.46E+09 p/s. Besides, in the data set on Balb/c mice, the “Liver (p/s) (Mean)” value was 6.73E+08 p/s, the “Spleen (p/s) (Mean)” value worked out at 2.04E+08 p/s and the “Whole body (p/s) (Mean)” value is recorded as 1.87E+09 p/s. The “In vitro Expression (Mean)” value in the data set on Hep G2 cells [1] is 5.28E+05. The “EE (%)” value in [2] (setting [6]) worked out at 93.44%. Further, in data set [2] (setting [7]), the “EE (%)” value amounted to 95.74%. Besides, in the data set on MCP-1, the “MCP-1 at 2 h” value is 1360 pg/mL and the “MCP-1 at 24 h” value turned out to be 229 pg/mL. The “In vitro cell viability (%) (Mean)” value in the data set with Hep G2 cells [3] is listed as 94.29%. Further, the “Size (nm)” value in [4] came out at 70.72 nm. Further, in [4] (setting [6]), the PDI is listed as 0.08 and the Size is listed as 70.30 nm. Besides, the PDI in data set [4] (setting [7]) was determined as 0.03. Further, the “Plasma (ng/mL), ionizable lipid concentration” value (from here on “Plasma (ng/mL)”) in data set [5] (1 h post injection) was 3316 ng/mL and 5944 ng/mL and 9980 ng/mL. In data set [5] (6 h post injection), the “Plasma (ng/mL)” value was 691 ng/mL and 8.59 ng/mL; the concentration at 6 h amounted to 14 ng/g.

For the molecule `CCCCC/C=C\C/C=C\CCCCCCCCOC(=O)NC(COC(=O)NCCN1CCCCCC1)C(=O)OCCCCCC(=O)OCC(CCCCCCCC)CCCCCCCCCC` (centres unmarked) [Lipid 911], in the data set with IL-6, the “IL-6 at 2 h” value turned out to be 28.5 pg/mL and the “IL-6 at 24 h” value worked out at 4.43 pg/mL. Besides, in the data set on C57BL/6J mice, the “Kidney (p/s)” value stood at 3.75E+07 p/s, the “Large intestine (p/s)” value amounted to 8.42E+07 p/s, the “Liver (p/s)” value worked out at 7.97E+09 p/s and the “Small intestine (p/s)” value stood at 6.47E+08 p/s. Also, in the data set on C57BL/6J mice, the “Spleen (p/s)” value is given as 8.51E+08 p/s and the “Whole body (p/s)” value is 7.27E+09 p/s. Moreover, in the data set with Balb/c mice, the “Liver (p/s) (Mean)” value came out at 5.42E+08 p/s, the “Spleen (p/s) (Mean)” value is 1.27E+08 p/s and the “Whole body (p/s) (Mean)” value was determined as 1.17E+09 p/s. In addition, the “In vitro Expression (Mean)” value in the data set on Hep G2 cells [1] worked out at 5.01E+05. In addition, the “EE (%)” value in data set [2] (setting [6]) came out at 94.15%. In addition, the “EE (%)” value in data set [2] (setting [7]) came to 98.24%. Besides, in the data set with MCP-1, the “MCP-1 at 2 h” value came out at 2000 pg/mL and the “MCP-1 at 24 h” value amounted to 254 pg/mL. In the data set with Hep G2 cells [3], the “In vitro cell viability (%) (Mean)” value was 81.84%. Also, the “Size (nm)” value in data set [4] is on record as 64.33 nm. In [4] (setting [6]), this molecule registered a PDI of 0.05 and a Size of 58.16 nm. The PDI in data set [4] (setting [7]) was found to be 0.03. For the same molecule, the “Plasma (ng/mL)” value in data set [5] (1 h post injection) was 7622 ng/mL and 5572 ng/mL and 3130 ng/mL. Also, in data set [5] (6 h post injection), the “Liver (ng/g), ionizable lipid concentration” value is 29536 ng/g and 35435 ng/g; the “Plasma (ng/mL)” value was 298 ng/mL and 2.59 ng/mL and 3.41 ng/mL; the concentration at 6 h is 29400 ng/g. Besides, the “Liver (ng/g), ionizable lipid concentration” value in [5] (168 h post injection) was 890 ng/g and 1331 ng/g and 618 ng/g.

For `CCCCC/C=C\C/C=C\CCCCCCCCOC(=O)C(COC(=O)NCCN1CCCCC1)NC(=O)OCCCCCCCCOC(=O)C(CCCCCC)CCCCCCCC` (centres unmarked) [Lipid 918], in the data set with IL-6, the “IL-6 at 2 h” value stood at 9.3 pg/mL and the “IL-6 at 24 h” value came out at 4.73 pg/mL. Besides, in the data set on C57BL/6J mice, the “Kidney (p/s)” value turned out to be 1.99E+07 p/s, the “Large intestine (p/s)” value is on record as 8.43E+07 p/s, the “Liver (p/s)” value was 4.67E+09 p/s and the “Small intestine (p/s)” value came out at 6.30E+08 p/s. In the data set with C57BL/6J mice, the “Spleen (p/s)” value is 3.95E+08 p/s and the “Whole body (p/s)” value was found to be 5.08E+09 p/s. In addition, in the data set on Balb/c mice, the “Liver (p/s) (Mean)” value amounted to 4.14E+08 p/s, the “Spleen (p/s) (Mean)” value is on record as 7.74E+07 p/s and the “Whole body (p/s) (Mean)” value came out at 1.21E+09 p/s. For the same molecule, in the data set on Hep G2 cells [1], the “In vitro Expression (Mean)” value stood at 1.25E+06. Besides, the “EE (%)” value in data set [2] (setting [7]) was found to be 93.47%. Further, in the data set with MCP-1, the “MCP-1 at 2 h” value came out at 880 pg/mL and the “MCP-1 at 24 h” value came to 300 pg/mL. Also, the “In vitro cell viability (%) (Mean)” value in the data set with Hep G2 cells [3] came out at 85.92%. The “Size (nm)” value in data set [4] stood at 69.23 nm. This molecule yielded a PDI in data set [4] (setting [7]) of 0.01.

On to `CCCCCCCC/C=C\CCCCCCCC(=O)NC(COC(=O)NCCN1CCCCC1)C(=O)OCCCCCCCC(=O)OC(CCCCCCCC)CCCCCCCC` (centres unmarked) [Lipid 736], for which, in the data set on IL-6, the “IL-6 at 2 h” value is 442 pg/mL and the “IL-6 at 24 h” value is 3.03 pg/mL. In addition, in the data set on C57BL/6J mice, the “Kidney (p/s)” value came to 5.22E+07 p/s, the “Large intestine (p/s)” value is given as 1.78E+08 p/s, the “Liver (p/s)” value was 2.87E+09 p/s and the “Small intestine (p/s)” value is recorded as 6.48E+08 p/s. Besides, in the data set on C57BL/6J mice, the “Spleen (p/s)” value stood at 3.38E+08 p/s and the “Whole body (p/s)” value was determined as 5.28E+09 p/s. For the same molecule, in the data set with Balb/c mice, the “Liver (p/s) (Mean)” value stood at 2.87E+08 p/s, the “Spleen (p/s) (Mean)” value is on record as 1.39E+08 p/s and the “Whole body (p/s) (Mean)” value amounted to 2.08E+09 p/s. In addition, the “In vitro Expression (Mean)” value in the data set with Hep G2 cells [1] was determined as 7.05E+05. Moreover, the “EE (%)” value in [2] (setting [7]) worked out at 91.61%. Also, in the data set on MCP-1, the “MCP-1 at 2 h” value was found to be 3830 pg/mL and the “MCP-1 at 24 h” value turned out to be 260 pg/mL. The “In vitro cell viability (%) (Mean)” value with Hep G2 cells [3] stood at 73.49%. Moreover, the “Size (nm)” value in data set [4] came to 66.29 nm. In addition, in data set [4] (setting [7]), the PDI is 0.01.
